Experiment: Surface activity, K12 Krüss tensiometer, automatic titration for CMC
Format: physicochemical
Protocol: Surface activity was measured with a K12 Krüss tensiometer at 25° C. in deionized water. Automatic titration was used to determine the critical micelle concentration (CMC). No pH adjustment was made for the measurement.

In the case of dodecyl sulfosuccinate, the “critical micelle concentration (CMC)” value is reported as “about 120 mg/L”.

From patent US8853141B2, “Sulfomethylsuccinates, process for making same and compositions containing same” (Stepan Company, priority 2009, dated 2014)
